Measured values reported in BigSolDB 2.1.

O=C1NS(=O)(=O)c2ccccc21
solubility (mole fraction)
Details	278.15 K	283.15 K	288.15 K	293.15 K	298.15 K	303.15 K	308.15 K	313.15 K	318.15 K	323.15 K
in acetone	0.0222	0.025	0.0286	0.0326	0.0374	0.0422	0.0484	0.0554	0.0635	0.071
in ethanol	0.00486	0.00578	0.00686	0.00814	0.00964	0.0114	0.0134	0.0158	0.019	0.0231
in ethyl acetate	0.00883	0.0111	0.0139	0.0169	0.0203	0.0241	0.0287	0.0342	0.0401	0.0474
in isobutanol	0.00181	0.00222	0.00279	0.00355	0.00433	0.00538	0.00654	0.00791	0.00953	0.0114
in isopropanol	0.00382	0.0045	0.00532	0.00632	0.00752	0.00895	0.0106	0.0126	0.015	0.0181
in methanol	0.00542	0.00665	0.00806	0.00969	0.0115	0.0135	0.0157	0.0185	0.0217	0.0257
in n-propanol	0.00311	0.00369	0.00439	0.00526	0.00621	0.00756	0.00902	0.0109	0.0129	0.0157
